Results from US20240391954A1, “MC4R AGONIST PEPTIDES” (The Regents of the University of Michigan, priority 2021, published 2024).
Values joined by “and” are separate entries in the source; they are usually repeats but may differ in a detail not shown here. Equal entries are not always repeated. Positions of bridges follow the written chain, without caps; N, C: chain ends. Non-standard residues stand in square brackets, D forms with d. Residues, ends and D or L forms follow the SMILES beside them. Nle = CCCC[C@H](N)C(=O)O

Tests used:
[1] = Pharmacokinetics: plasma and brain concentration after IP injection; type: in vivo, mouse; conditions: IP 15 mg/kg; for Brain concentration, individual mice 1-3 / Plasma concentration, individual mice 1-3: 15 mg/kg
Method: FIG. 5. Pharmacokinetic data for an exemplary peptide relative to setmelanotide. Peptides at 1.5 mg/mL in PBS containing 10% DMSO and 10% PEG-400 were given by IP injection (15 mg/kg) to female CD-1 mice (n=15). At the given time points (0.5 h, 2 h, 4 h, 7 h and 24 h), brain samples were taken out and frozen at −80° C. immediately for later preparation and analysis, and blood samples were collected using heparinized calibrated pipettes. Blood samples were centrifuged at 15000 rpm for 10 min. Subsequently, blood plasma was collected from the upper layer. The plasma was frozen at −80° C. for later analysis. Peptide concentrations at times indicated were determined by LC MS/MS, using non-zero standards in blank Plasma and Brain Samples.
The drug at 1.5 mg/mL in PBS containing 10% DMSO and 10% PEG-400 was given by IP injection (15 mg/kg). At the given time points (0.5 h, 2 h, 4 h, 7 h and 24 h), brain samples were taken out and frozen at −80° C. immediately for later preparation and analysis, and blood samples were collected using heparinized calibrated pipettes. Blood samples were centrifuged at 15000 rpm for 10 min. Subsequently, blood plasma was collected from the upper layer. The plasma was frozen at −80° C. for later analysis.
The analytical curves were constructed using non-zero standards in the blank Plasma and Brain Samples. A blank sample (matrix sample processed without internal standard) was used to exclude contamination. The linear regression analysis of CTX1227/setmelanotide were performed by plotting the peak area ratio (y) against the CTX1227/setmelanotide concentration (x) in ng/mL, respectively.

[2] = Plasma protein binding (Centrifree ultrafiltration); type: in vitro ADME
Method: Solutions of test compound in DMSO were prepared at 1 mM, 100 uM and 10 uM, 5 ul of each solution of test compound was added to 495 uL plasma, and incubated at 25° C. for 5 min. Sample was added to a Centrifree® device, then centrifuged at 2000× g for 20 min to obtain desired filtrate volume. Initial plasma samples and ultrafiltrates were subjected to LC-MS/MS. % Free peptide=(concentration of ultrafiltrates/concentration of plasma)×100%. % Bound=100%−% Free

[3] = Mouse plasma stability; type: in vitro ADME; conditions: pooled mouse plasma, 37° C.
Method: FIG. 3. Results of plasma stability testing for control peptides. Compounds shown were incubated in mouse plasma at 37° C. at 1 μM concentrations. 40 ul aliquots were removed at the times indicated and the reactions stopped with the addition of 160 μL cold acetonitrile containing 200 ng/ml of peptide internal standard (IS). The incubation solution was centrifuged at 3500 rpm for 10 minutes to precipitate protein. LC/MS/MS analysis was used to determine the % peptide remaining.
Pooled mouse plasma was prepared and stored at −80° C, prior to use, 396 μL mouse plasma was incubated at 37° C. for 5 minutes in 1.5 mL microcentrifuge tubes. 4 μL of 100 μM test or control compound/peptide was added to each tube and incubated for 0.5, 15, 30, 60, 120, or 240 minutes. An aliquot of 40 μL of each reaction was stopped by the addition of 4 volume of cold acetonitrile containing 200 ng/mL of […] solution was centrifuged at 3500 rpm for 10 minutes to precipitate protein. The supernatant was used for LC/MS/MS analysis. The natural log peak area ratio (compound peak area/internal standard peak area) was plotted against time and the gradient of the line determined.

[4] = molecular target: T1, human MC3R (Homo sapiens, UniProt P41968); experiment: split-luciferase cAMP sensor assay, agonist mode (measurement window 1), hMC3R; type: cell-based
T1 construct: expressed in transfected cells; host or cells: HEK-293 cells stably expressing the GScAMP22F split-luciferase cAMP sensor (parent reporter line from Promega); MC3R clone generated in-house, G418 selection
T1 sequence (P41968 whole entry): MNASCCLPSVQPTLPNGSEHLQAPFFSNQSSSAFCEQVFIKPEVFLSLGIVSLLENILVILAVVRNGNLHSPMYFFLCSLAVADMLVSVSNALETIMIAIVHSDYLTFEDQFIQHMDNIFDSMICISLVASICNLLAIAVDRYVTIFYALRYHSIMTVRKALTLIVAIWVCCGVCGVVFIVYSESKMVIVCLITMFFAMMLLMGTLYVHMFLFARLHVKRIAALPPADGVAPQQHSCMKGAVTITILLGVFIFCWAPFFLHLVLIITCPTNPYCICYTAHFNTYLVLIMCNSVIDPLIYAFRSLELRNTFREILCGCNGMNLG
Summary of the method: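 Live stable cell lines carrying receptor plus GloSensor cAMP22f split-luciferase, loaded with 4% D-luciferin in serum-free medium (~1% serum estimated during assay). Luminescence recorded during in-line peptide addition; direct agonist effect read in window 1, with 20 μM forskolin as normalization reference. EC50 from four-parameter sigmoid fit.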

For `CCCC[C@H](NC(=O)[C@H](CCCNC(=N)N)NC(C)=O)C(=O)N[C@H]1CSSC[C@@H](C(N)=O)NC(=O)[C@H](Cc2c[nH]c3ccccc23)NC(=O)[C@H](CCCNC(=N)N)NC(=O)[C@@H](Cc2ccccc2)NC(=O)[C@H](Cc2c[nH]cn2)NC1=O` [CTX-1227, Arg-Nle-cyclo(Cys-His-D-Phe-Arg-Trp-Cys)] (Ac-R[Nle]CH[dF]RWC-NH2; disulfide 3-8 (inferred)), the “Brain concentration, individual mice 1-3” value ([1]; 0.5 h, brain, individual animals) was 99 ng/g and 263.5 ng/g and 182 ng/g, the “Plasma concentration, individual mice 1-3” value (“Plasma concentration” below) ([1]; 0.5 h, plasma, individual animals) was 20900 ng/mL and 25000 ng/mL and 68700 ng/mL and the “Brain concentration, individual mice 1-3” value ([1]; 2 h, brain, individual animals) was 287.5 ng/g and 176.5 ng/g and 327.5 ng/g. For the same compound, the “Plasma concentration” value ([1]; 2 h, plasma, individual animals) was 50200 ng/mL and 17300 ng/mL and 20700 ng/mL, the “Brain concentration, individual mice 1-3” value ([1]; 4 h, brain, individual animals) was 158 ng/g and 142.5 ng/g and 210 ng/g and the “Plasma concentration” value ([1]; 4 h, plasma, individual animals) was 19400 ng/mL and 23300 ng/mL and 33400 ng/mL. The “Brain concentration, individual mice 1-3” value ([1]; 7 h, brain, individual animals) was 223 ng/g and 224.5 ng/g and 119 ng/g, the “Plasma concentration” value ([1]; 7 h, plasma, individual animals) was 9360 ng/mL and 9210 ng/mL and 2880 ng/mL and the “Brain concentration, individual mice 1-3” value ([1]; 24 h, brain, individual animals) was “BlQ and BLQ (2×)”. For the same compound, the “Plasma concentration” value ([1]; 24 h, plasma, individual animals) was “BLQ”, the tissue level at time at 0.5 h ([1]; female, CD-1, mouse, mice, 0.5 h, brain, mean of 3) was 182 ng/g and the level at 0.5 h ([1]; female, CD-1, mouse, mice, 0.5 h, plasma, mean of 3) was 38200 ng/mL. The tissue level at time at 2 h ([1]; female, CD-1, mouse, mice, 2 h, brain, mean of 3) was 264 ng/g, the level at 2 h ([1]; female, CD-1, mouse, mice, 2 h, plasma, mean of 3) was 29400 ng/mL and the tissue level at time at 4 h ([1]; female, CD-1, mouse, mice, 4 h, brain, mean of 3) was 170 ng/g. It also gave a level at 4 h ([1]; female, CD-1, mouse, mice, 4 h, plasma, mean of 3) of 25400 ng/mL, a tissue level at time at 7 h ([1]; female, CD-1, mouse, mice, 7 h, brain, mean of 3) of 189 ng/g and a level at 7 h ([1]; female, CD-1, mouse, mice, 7 h, plasma, mean of 3) of 7150 ng/mL. For the same compound, the level at 24 h ([1]; female, CD-1, mouse, mice, 24 h, plasma, individual animals, read-out: Plasma concentration, individual mice 1-3) was 15 ng/mL, the fraction unbound at 5 min, 0.1 µM ([2]; 0.1 uM) was 0.5 and the fraction unbound at 5 min, 1 µM ([2]; 1.0 uM) was 0.53. For the same compound, the fraction unbound at 5 min, 10 µM ([2]; 10.0 uM) was 0.46, the half-life at 1 µM [3] was 1.05 h and the Emax ([4]; % maximal activation, agonist mode, read-out: MC3R cAMP % max activation) was 96%. The EC50 ([4]; HEK-293 cells stably expressing hMC3R, agonist mode, read-out: MC3R cAMP EC50) was 2.8 nM and the “MC4R selectivity vs MC3R” value ([4]; MC4R versus MC3R) was 11.
